Test results reported in patent US8551978B2 (Theravance, Inc., priority 2009, dated 2013).
pEC50, pKi: −log10 of the molar value. Structures can show the parent of a compound that is named as a salt. Where two headings read alike, the source gives them in different places.

Legend:
hM3 muscarinic receptor = hM3 muscarinic receptor (Homo sapiens (Human), UniProt P20309); assay: Radioligand binding assay for muscarinic receptors ([3H]-NMS displacement, CHO cell membranes)
Outline: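 [3H]-NMS displacement used homogenized CHO membranes, with test compounds at final concentrations of […]. Plates were incubated 6 hours at 37 °C, then filtered and read by liquid scintillation counting. A one-site competition fit gave values that were converted to Ki.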

hβ2 adrenergic receptor = hβ2 adrenergic receptor (Homo sapiens (Human), UniProt P07550); assay: Assay for determining adrenergic receptor agonist potency (cAMP Flashplate, HEK-293 cells); assay type: cell-based; conditions: data rounded to nearest 1 nM
Sequence of hβ2 adrenergic receptor (P07550 whole entry): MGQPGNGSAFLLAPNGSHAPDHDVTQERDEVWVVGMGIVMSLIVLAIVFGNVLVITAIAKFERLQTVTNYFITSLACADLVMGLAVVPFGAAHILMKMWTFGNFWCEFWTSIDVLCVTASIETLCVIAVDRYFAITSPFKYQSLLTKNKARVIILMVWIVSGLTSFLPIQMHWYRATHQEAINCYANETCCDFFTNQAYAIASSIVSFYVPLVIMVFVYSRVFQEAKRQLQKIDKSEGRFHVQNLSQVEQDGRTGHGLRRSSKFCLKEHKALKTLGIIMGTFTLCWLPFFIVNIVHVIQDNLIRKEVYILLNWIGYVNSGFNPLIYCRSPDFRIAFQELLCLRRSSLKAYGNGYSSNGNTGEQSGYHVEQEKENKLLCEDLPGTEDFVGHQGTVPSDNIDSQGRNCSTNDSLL

[1] = test system: MCh-induced bronchoconstriction; assay: Einthoven assay: bronchoprotection against methacholine (MCh)-induced bronchoconstriction; assay type: in vivo, rat; conditions: for inhibition in vivo at 0.1 mg: inhaled or nasal, read-out: Broncho. at 24 h
Outline: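 Male Sprague-Dawley rats received 100 μg compound (unless stated) or water vehicle by 10-min inhalation. At set times, anesthetized, ventilated rats were challenged with IV MCh at 40 and 80 μg/kg (2.5-min infusions). Ventilation-pressure rise is expressed as % inhibition versus vehicle controls.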

[2] = rat, 100 μg by inhalation, 24 h after administration
[3] = hM3 Muscarinic Receptor Binding, data rounded to nearest 0.1 nM

Sequence of hM3 muscarinic receptor (P20309 whole entry): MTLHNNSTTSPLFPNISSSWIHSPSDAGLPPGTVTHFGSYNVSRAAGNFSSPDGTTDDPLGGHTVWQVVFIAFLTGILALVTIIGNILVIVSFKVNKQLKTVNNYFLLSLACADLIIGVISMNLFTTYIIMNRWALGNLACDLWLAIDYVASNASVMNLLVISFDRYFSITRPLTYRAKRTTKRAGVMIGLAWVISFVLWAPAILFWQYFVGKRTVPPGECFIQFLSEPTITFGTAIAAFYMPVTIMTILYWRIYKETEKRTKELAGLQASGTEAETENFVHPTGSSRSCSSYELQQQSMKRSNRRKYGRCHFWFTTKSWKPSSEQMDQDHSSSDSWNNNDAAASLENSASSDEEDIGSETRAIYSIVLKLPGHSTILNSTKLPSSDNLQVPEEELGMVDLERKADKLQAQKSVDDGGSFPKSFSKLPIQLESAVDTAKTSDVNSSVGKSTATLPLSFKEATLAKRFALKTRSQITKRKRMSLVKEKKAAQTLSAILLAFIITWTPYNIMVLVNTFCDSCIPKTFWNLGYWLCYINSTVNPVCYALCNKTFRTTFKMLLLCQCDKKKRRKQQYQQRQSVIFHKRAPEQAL

Row | SMILES | pKi (hM3 muscarinic receptor) | pEC50 (hβ2 adrenergic receptor) | inhibition in vivo at 0.1 mg [1, 2] [%] | pKi (hM3 muscarinic receptor; [3]) | Broncho. at 24 h [1, 2] | inhibition in vivo at 0.1 mg ([1]; Rattus norvegicus, 24 h) [%]
1 | COc1cc(NC(=O)CCCCN(C)C(=O)CCN2CCC(OC(=O)Nc3ccccc3-c3ccccc3)CC2)c(Cl)cc1CNC[C@H](O)c1ccc(O)c2[nH]c(=O)ccc12 [Compound I-19] | 10.00 | 9.00 | > 30 | – | – | –
2 | Cc1ccc(C(=O)NCc2cccc(CC(C)NC[C@H](O)c3ccc(O)c4[nH]c(=O)ccc34)c2)cc1N(C)C(=O)CCN1CCC(OC(=O)Nc2ccccc2-c2ccccc2)CC1 (stereo partly drawn) [Compound I-45] | – | 9.00 | – | 9.70 | No | –
3 | C[C@H](Cc1cccc(CCC(=O)NCc2ccc(N(C)C(=O)CCN3CCC(OC(=O)Nc4ccccc4-c4ccccc4)CC3)cc2)c1)NC[C@H](O)c1ccc(O)c2[nH]c(=O)ccc12 [Compound I-92] | 9.70 | 9.00 | > 30 | – | – | –
4 | COc1cc(CNC[C@H](O)c2ccc(O)c3[nH]c(=O)ccc23)ccc1NC(=O)CCCCN(C)C(=O)CCN1CCC(OC(=O)Nc2ccccc2-c2ccccc2)CC1 [Compound I-16] | 10.00 | 9.00 | > 30 | – | – | –
5 | CN(CCCCC(=O)Nc1ccc(CNC[C@H](O)c2ccc(O)c3[nH]c(=O)ccc23)cc1)C(=O)CCN1CCC(OC(=O)Nc2ccccc2-c2ccccc2)CC1 [Compound I-14, Biphenyl-2-ylcarbamic Acid 1-(2-{[4-(4-{[(R)-2-hydroxy-2-(8-hydroxy-2-oxo-1,2-dihydroquinolin-5-yl)ethylamino]methyl}phenylcarbamoyl)-butyl]methylcarbamoyl}ethyl)piperidin-4-yl Ester Ditrifluoroacetic Acid Salt] | 10.00 | 9.00 | – | – | – | > 30
6 | COc1ccc(CC(C)NC[C@H](O)c2ccc(O)c3[nH]c(=O)ccc23)cc1CC(=O)NCc1ccc(N(C)C(=O)CCN2CCC(OC(=O)Nc3ccccc3-c3ccccc3)CC2)cc1 (stereo partly drawn) [Compound I-94] | – | 9.00 | > 30 | 10.00 | – | –
7 | COc1ccc(CC(=O)NCc2ccc(N(C)C(=O)CCN3CCC(OC(=O)Nc4ccccc4-c4ccccc4)CC3)cc2)cc1C[C@H](C)NC[C@H](O)c1ccc(O)c2[nH]c(=O)ccc12 [Compound I-83] | – | 8.70 | > 30 | 9.70 | – | –
8 | CN(CCCC(=O)Nc1ccc(CCNC[C@H](O)c2ccc(O)c3[nH]c(=O)ccc23)cc1)C(=O)CCN1CCC(OC(=O)Nc2ccccc2-c2ccccc2)CC1 [Compound I-8] | 10.00 | 9.00 | > 30 | – | – | –
9 | C[C@@H](Cc1cccc(NC(=O)c2cccc(N(C)C(=O)CCN3CCC(OC(=O)Nc4ccccc4-c4ccccc4)CC3)c2)c1)NC[C@H](O)c1ccc(O)c2[nH]c(=O)ccc12 [Compound I-39] | 9.70 | 9.00 | – | – | No | –
10 | COc1cc(NC(=O)Cc2cccc(N(C)C(=O)CCN3CCC(OC(=O)Nc4ccccc4-c4ccccc4)CC3)c2)c(Cl)cc1CNC[C@H](O)c1ccc(O)c2[nH]c(=O)ccc12 [Compound I-61] | – | 9.00 | > 30 | 10.00 | – | –
11 | Cc1cc(NC(=O)CCCN(C)C(=O)CCN2CCC(OC(=O)Nc3ccccc3-c3ccccc3)CC2)c(C)cc1CNC[C@H](O)c1ccc(O)c2[nH]c(=O)ccc12 [Compound I-5] | 10.00 | 9.00 | > 30 | – | – | –
12 | C[C@H](Cc1cccc(NC(=O)c2cccc(N(C)C(=O)CCN3CCC(OC(=O)Nc4ccccc4-c4ccccc4)CC3)c2)c1)NC[C@H](O)c1ccc(O)c2[nH]c(=O)ccc12 [Compound I-38] | 9.70 | 9.00 | – | – | No | –
13 | CN(C(=O)CCN1CCC(OC(=O)Nc2ccccc2-c2ccccc2)CC1)c1cccc(C(=O)Nc2cccc(CCNC[C@H](O)c3ccc(O)c4[nH]c(=O)ccc34)c2)c1 [Compound I-32] | 10.00 | 9.00 | – | – | No | –
14 | Cc1ccc(C(=O)Nc2ccc(CC(C)NC[C@H](O)c3ccc(O)c4[nH]c(=O)ccc34)cc2)cc1N(C)C(=O)CCN1CCC(OC(=O)Nc2ccccc2-c2ccccc2)CC1 (stereo partly drawn) [Compound I-41] | – | 9.00 | – | 9.52 | No | –
15 | C[C@@H](Cc1cccc(CC(=O)NCCCCN(C)C(=O)CCN2CCC(OC(=O)Nc3ccccc3-c3ccccc3)CC2)c1)NC[C@H](O)c1ccc(O)c2[nH]c(=O)ccc12 [Compound I-24] | 10.00 | 9.00 | > 30 | – | – | –
16 | Cc1cc(CNC[C@H](O)c2ccc(O)c3[nH]c(=O)ccc23)ccc1NC(=O)CCCCN(C)C(=O)CCN1CCC(OC(=O)Nc2ccccc2-c2ccccc2)CC1 [Compound I-15] | 10.00 | 9.00 | > 30 | – | – | –
17 | CC(Cc1ccc(CC(=O)NCc2ccc(N(C)C(=O)CCN3CCC(OC(=O)Nc4ccccc4-c4ccccc4)CC3)cc2)cc1)NC[C@H](O)c1ccc(O)c2[nH]c(=O)ccc12 (stereo partly drawn) [Compound I-80] | – | 9.00 | – | 9.70 | No | –
18 | CC(Cc1cccc(NC(=O)CCCN(C)C(=O)CCN2CCC(OC(=O)Nc3ccccc3-c3ccccc3)CC2)c1)NC[C@H](O)c1ccc(O)c2[nH]c(=O)ccc12 (stereo partly drawn) [Compound I-10] | 10.00 | 9.00 | > 30 | – | – | –
19 | Cc1cc(CNC[C@H](O)c2ccc(O)c3[nH]c(=O)ccc23)ccc1NC(=O)c1ccc(C)c(N(C)C(=O)CCN2CCC(OC(=O)Nc3ccccc3-c3ccccc3)CC2)c1 [Compound I-28] | 9.70 | 9.00 | – | – | No | –
20 | COc1cc(NC(=O)c2cccc(N(C)C(=O)CCN3CCC(OC(=O)Nc4ccccc4-c4ccccc4)CC3)c2)c(Cl)cc1CNC[C@H](O)c1ccc(O)c2[nH]c(=O)ccc12 [Compound I-31] | – | 9.00 | > 30 | 9.70 | – | –
21 | C[C@@H](Cc1cccc(CNC(=O)Cc2ccc(N(C)C(=O)CCN3CCC(OC(=O)Nc4ccccc4-c4ccccc4)CC3)cc2)c1)NC[C@H](O)c1ccc(O)c2[nH]c(=O)ccc12 [Compound I-69] | 10.00 | 9.00 | > 30 | – | – | –
22 | CN(CCCCC(=O)Nc1ccc(CCNC[C@H](O)c2ccc(O)c3[nH]c(=O)ccc23)cc1)C(=O)CCN1CCC(OC(=O)Nc2ccccc2-c2ccccc2)CC1 [Compound I-21] | 10.00 | 9.00 | > 30 | – | – | –
23 | C[C@H](Cc1cccc(CC(=O)NCCCN(C)C(=O)CCN2CCC(OC(=O)Nc3ccccc3-c3ccccc3)CC2)c1)NC[C@H](O)c1ccc(O)c2[nH]c(=O)ccc12 [Compound I-12] | 10.00 | 9.00 | – | – | No | –
24 | CN(C(=O)CCN1CCC(OC(=O)Nc2ccccc2-c2ccccc2)CC1)c1ccc(CC(=O)NCc2cccc(CCNC[C@H](O)c3ccc(O)c4[nH]c(=O)ccc34)c2)cc1 [Compound I-65] | 10.00 | 9.00 | > 30 | – | – | –
25 | C[C@@H](Cc1ccc(CNC(=O)c2cccc(N(C)C(=O)CCN3CCC(OC(=O)Nc4ccccc4-c4ccccc4)CC3)c2)cc1)NC[C@H](O)c1ccc(O)c2[nH]c(=O)ccc12 [Compound I-49] | 10.00 | 9.00 | > 30 | – | – | –
26 | COc1cc(NC(=O)CCCN(C)C(=O)CCN2CCC(OC(=O)Nc3ccccc3-c3ccccc3)CC2)c(Cl)cc1CNC[C@H](O)c1ccc(O)c2[nH]c(=O)ccc12 [Compound I-6] | – | 9.00 | > 30 | 10.00 | – | –
27 | CC(Cc1cccc(CNC(=O)c2cccc(N(C)C(=O)CCN3CCC(OC(=O)Nc4ccccc4-c4ccccc4)CC3)c2)c1)NC[C@H](O)c1ccc(O)c2[nH]c(=O)ccc12 (stereo partly drawn) [Compound I-44] | 10.00 | 9.00 | – | – | No | –
28 | C[C@@H](Cc1cccc(CC(=O)NCc2ccc(N(C)C(=O)CCN3CCC(OC(=O)Nc4ccccc4-c4ccccc4)CC3)cc2)c1)NC[C@H](O)c1ccc(O)c2[nH]c(=O)ccc12 [Compound I-79] | 10.00 | 9.00 | – | – | No | –
